Read-outs that look alike come from different tables or passages of the source.
Assays:
[1] = tested on: newly synthesized [^35S]folate receptors in placental 1584-HF cells; assay: Biosynthetic rate of folate receptors after protein transfection into placental 1584-HF cells; format: cell-based, human; settings: protein transfected in placental 1584-HF cells
From the text: (§1) Transfection of purified recombinant wild-type or various mutant hnRNP-E1 proteins into cells was achieved using the Xfect™ Protein Transfection Kit (Clontech, Mountain View, Calif.). Briefly, placental 1584-HF cells in 10-cm dishes at 70-80% confluence were transfected with 2.4-mL serum-free medium and Xfect Protein Transfection Reagent (1.2-mL) containing 20-μg of either wild-type hnRNP-E1-, or highest-affinity (HA)-hnRNP-E1(C293S)-mutant, or wild-type-like hnRNP-E1 (G292A)-mutant proteins and 2-μg of ß-galactosidase at 37° C. for 60-min. After cysteine-starvation for 4-h, an aliquot of cells were assessed for ß-galactosidase activity (to measure the efficiency of co-transfection of ß-galactosidase) and the remaining cells were pulsed with L-[^35S]cysteine (250-μCi) and assessed for specific [^35S]cysteine incorporated into folate receptor to determine the biosynthetic rate of this protein. A similar protocol was employed for analysis of newly synthesized [^35S]hnRNP-E1 using anti-hnRNP-E1 antiserum-coupled agarose and control agarose in order to derive values for specific [^35S]cysteine incorporated into hnRNP-E1 and thereby determine the biosynthetic rate of this protein.

[2] = tested on: 25-nt hnRNP-E1 mRNA cis-element; assay: Gel-shift assay of hnRNP-E1 proteins with 25-nt hnRNP-E1 mRNA cis-element; format: binding, human; settings: absence of L-homocysteine
Procedure: Parenthetically, there was no significant difference in RNA binding to GST-hnRNP-E1 by use of either 32P-RNA probes or 35S-labeled RNA probes used. Other studies assessed the effect of iron(II) or iron(III) on homocysteine-induced RNA-protein interactions.
Recombinant GST-plasmid DNA, pGST-hnRNP-E1, pGST-hnRNP-E2, and related engineered variant plasmids were transformed into BL21 Escherichia coli from Novagen (Madison, Wis.). After induction by 1 mM isopropyl-1-thio-ß-D-galactopyranoside, the GST-hnRNP-E1 and engineered variant fusion proteins were individually purified using the B-PER GST Fusion Protein Purification Kit (Pierce, Rockford, Ill.). The eluted GST fusion proteins were dialyzed against 500 volumes of buffer to remove excess reducing reagents (such as dithiothreitol (DTT)) and assayed by SDS-PAGE and Western blots using anti-peptide hnRNP-E1 antiserum. Gel shift assays with target RNA were carried out as described.

[3] = biological target: [^35S]25-nt hnRNP-E1 mRNA cis-element; assay: Dissociation constant (KD) of GST-hnRNP-E1 or its mutant proteins for the 25-nt hnRNP-E1 mRNA cis-element; format: binding, human
Procedure: (§2) Methods for testing the ability of an engineered hnRNP-E1 variant polypeptide to bind to an RNA comprising the sequence of SEQ ID NO:6 are known in the art. Such methods include, but are not limited to, RNA electrophoretic mobility shift assays, as exemplified herein, RNA pull-down assays, and oligonucleotide-targeted RNase H protection assays. Such assays are conducted in the presence or absence of homocysteine to determine the RNA-binding dependence of any particular hnRNP-E1 polypeptide tested on the presence of homocysteine. […] Additional methods are outline in Tang et al. (“Incrimination of heterogeneous nuclear ribonucleoprotein E1 (hnRNP-E1) as a candidate sensor of physiological folate deficiency.” J Biol Chem. 2011; 286(45):39100-39115), which is incorporated herein in its entirety.
(§3) Specific binding was determined by subtracting values of non-specific binding with GST from those of total binding with GST-hnRNP-E1; (however, in Table 1 and FIG. 6G, non-specific binding using bovine serum albumin (BSA) was subtracted from total binding to GST-hnRNP-E1 to determine specific binding). The KD was calculated from a Scatchard plot using GraphPad Prism 6 from GraphPad Software (San Diego, Calif.), as previously described in the art.

[4] = biological target: [^35S]18-nt folate receptor-α mRNA cis-element; assay: Dissociation constant (KD) of GST-hnRNP-E1 or its mutant proteins for the 18-nt folate receptor-α mRNA cis-element; format: binding, human
Procedure: as §2, §3

[5] = biological target: [^35S]18-nt folate receptor-α mRNA cis-element; settings: earlier studies, cited from earlier work
HPV16 L2 RNA = assay: In vitro translation of HPV16 L2 protein; format: biochemical, Human Papillomavirus type 16
Procedure: (§4) In vitro transcription-translation was carried out using the Linked SP6/T7 In Vitro Transcription/Translation Kit (Roche Applied Science) after addition of one of various targeted DNAs—pSPT18-25-hnRNP-E1 DNA, or Pst1-linearized plasmid pSPT18-folate receptor-α, or HPV16 L2 DNA, (0.5 μg/reaction)—to the transcription mix as described. In other experiments, the capacity for perturbing the interaction of hnRNP-E1 with the 25-nt hnRNP-E1 cis-element during in vitro translation was assessed in the presence of either scrambled oligonucleotides (5′-[…]-3′ SEQ ID NO:20) or specific antisense oligonucleotides (5′-[…]-3′ SEQ ID NO:21) generated against the 25-nt hnRNP-E1 mRNA cis-element (GenScript USA, Piscataway, N.J.).
Construction of plasmids for generation of HPV16 L2 RNA, gel-shift and in vitro translation studies were carried as described with additional treatments shown in FIGS. 10A-10D

[6] = tested on: newly synthesized [^35S]hnRNP-E1 in placental 1584-HF cells; assay: Biosynthetic rate of hnRNP-E1 after protein transfection into placental 1584-HF cells; format: cell-based, human; settings: protein transfected in placental 1584-HF cells
From the text: as §1

[7] = biological target: hnRNP-E1 binding to folate receptor mRNA and hnRNP-E1 mRNA cis-element (Homo sapiens, UniProt Q15365); settings: physiologically relevant thiols; cited from earlier work
[8] = biological target: T1, RNA-protein complexes of GST-hnRNP-E1 and 25-nt hnRNP-E1 mRNA cis-element (Homo sapiens, UniProt Q15365, A205V); assay: Gel-shift assay: effect of thiols, iron and deferoxamine on RNA-protein complex formation; format: binding
T1 construct: made in house; host or cells: Escherichia coli BL21

[9] = tested on: 25-nt hnRNP-E1 cis-element-driven CAT reporter; assay: 25-nt hnRNP-E1 cis-element-driven CAT reporter in placental 1584-HF cells; format: cell-based, human; settings: 50-μM L-homocysteine for 3-h at 37° C.
From the text: To prepare pCAT-25 or pCAT-25-Mutant two pairs of oligonucleotides, one for pCAT-25, (5′-tagcaggtac AAGCTTCTCCCGCCCGCTCCCGCTCGCTCCCCATGG tgtaactagct-3′SEQ ID NO:22; 5′-agctagttaca CCATGGGGAGCGAGCGGGAGCGGGCGGGAGAAGCTT gtacctgcta-3′ SEQ ID NO:23), and one for pCAT-25-Mutant#6, (5′-tagcaggtac AAGCTTCTTCCGCCCGCTCCCGCTCGCTTCCCATGG tgtaactagct-3′ SEQ ID NO:24; 5′-agctagttaca CCATGGGGAGCGAGCGGGAGCGGGCGGGAGAAGCTT gtacctgcta-3′SEQ ID NO:25) were first linearized with HindIII and NcoI and subcloned into pCAT3 Control DNA digested with HindIII and NcoI.

hnRNP-E1 mRNA = assay: In vitro translation of hnRNP-E1; format: biochemical, human
Procedure: as §4

[10] = biological target: T2, 25-nt hnRNP-E1 mRNA cis-element-bound hnRNP-E1 protein complexes (Homo sapiens, UniProt Q15365); assay: Slot-blot capture of intracellular RNA-protein complexes in placental 1584-HF cells; format: cell-based; settings: increasing concentrations, 2-hour exposure
T2 construct: endogenous in cells; host or cells: human placental 1584-HF / 1584-LF cells
Procedure: Slot-blot hybridization was carried out under high stringency conditions to detect intracellular RNA-protein complexes (composed of endogenous hnRNP-E1 RNA cis-element-bound to cellular hnRNP-E1 proteins) in placental 1584 cells under experimental conditions that modulated the intracellular concentration of homocysteine. We employed similar principles used to capture folate receptor-α mRNA cis-element-bound hnRNP-E1 complexes in HeLa-IU1 cells. […] Following RNase treatment and proteolysis, equal aliquots of the released small mRNA cis-element fragments were probed for evidence of enrichment of hnRNP-E1 mRNA cis-element in experimental cells using a specific [^35S]labeled antisense hnRNP-E1 mRNA cis-element probe.

[11] = biological target: T3, RNA-protein interaction of 25-nt hnRNP-E1 mRNA cis-element and GST-hnRNP-E1 (Homo sapiens, UniProt Q15365, A205V); assay: Influence of thiols or iron(II) on the KD of the RNA-protein interaction; format: binding; settings: L-homocysteine present
T3 construct: made in house; host or cells: Escherichia coli BL21
Procedure: as §3

[12] = biological target: T1, RNA-protein complexes of GST-hnRNP-E1 and 25-nt hnRNP-E1 mRNA cis-element; assay: Gel-shift assay: effect of thiols, iron and deferoxamine on RNA-protein complex formation; format: binding; settings: fixed L-homocysteine
Procedure: Other studies assessed the effect of iron(II) or iron(III) on homocysteine-induced RNA-protein interactions.
Studies were conducted to evaluate the effect of iron(II) (as ferrous sulfate heptahydrate) or iron(III) (as ferric chloride hexahydrate) in modulating RNA-protein interactions during gel-shift assays in either the absence or presence of 10-mM glutathione. The iron preparation, either alone or with 50-μM of deferoxamine (DFO) to define the specificity of iron(II), was incubated first with glutathione and hnRNP-E1 before addition of other components of the reaction mixture. […] The samples were analyzed by PAGE and autoradiography overnight followed by densitometric analysis of the signals representing RNA-protein complexes.

T1 sequence (Q15365 whole entry A205V, one chain of several): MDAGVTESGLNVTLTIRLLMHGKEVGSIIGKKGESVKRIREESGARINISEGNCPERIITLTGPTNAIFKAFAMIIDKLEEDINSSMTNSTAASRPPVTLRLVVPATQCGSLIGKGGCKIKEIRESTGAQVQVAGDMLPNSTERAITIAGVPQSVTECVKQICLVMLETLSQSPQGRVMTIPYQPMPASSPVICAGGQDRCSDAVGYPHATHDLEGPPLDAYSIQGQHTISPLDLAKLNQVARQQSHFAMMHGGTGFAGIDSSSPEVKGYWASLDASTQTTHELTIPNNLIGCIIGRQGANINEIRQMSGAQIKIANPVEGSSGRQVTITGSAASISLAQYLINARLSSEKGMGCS
T2 sequence (Q15365 whole entry, one chain of several): as the sequence (Q15365 whole entry A205V, one chain of several) above, with V205A counted along it
hnRNP-E1 binding to folate receptor mRNA and hnRNP-E1 mRNA cis-element, sequence (Q15365 whole entry): as the sequence (Q15365 whole entry A205V, one chain of several) above, with V205A counted along it
T3 sequence (Q15365 whole entry A205V): as the sequence (Q15365 whole entry A205V, one chain of several) above

## GST-hnRNP-E1: purified recombinant glutathione S-transferase fusion of wild-type human hnRNP-E1 (SEQ ID NO:1)
[1]
  [^35S]cysteine-folate receptor: 1.62 ± 0.11 b fmol/mg protein/h
[1]; listed as wild-type hnRNP-E1
  [^35S]cysteine-folate receptor: 1.62 fmol/mg protein/h
[2]
  RNA-protein gel-shift signal: no RNA-protein gel-shift signals
[3]; Iron(II) 0 μM, L-Homocysteine 25 μM
  Kd: 2.74 ± 0.52 nM
[3]; Iron(II) 5 μM, L-Homocysteine 25 μM
  Kd: 3.72 ± 0.34 nM
[3]; Iron(II) 25 μM, L-Homocysteine 25 μM
  Kd: 6.5 ± 0.83 nM
[3]; L-Homocysteine 0 μM
  Kd: 1.93 nM
[3]; L-Homocysteine 10 μM
  Kd: 1.14 nM
[3]; L-Homocysteine 50 μM
  Kd: 0.62 nM
[4]; L-Homocysteine 0 μM
  Kd: 1.47 nM
[4]; L-Homocysteine 10 μM
  Kd: 0.89 ± 0.16 nM
[4]; L-Homocysteine 50 μM
  Kd: 0.47 nM
[5]; L-homocysteine raised to levels of mild-to-moderate folate deficiency
  Kd: 0.5 nM
[5]; baseline
  Kd: 1.5 nM
HPV16 L2 RNA; after quenching excess ß-ME by NEM (2 mM)
  HPV16 L2 protein signal: insignificant reduction of HPV16 L2 protein signal
HPV16 L2 RNA; basal conditions, excess ß-ME not counteracted by NEM, dose-dependent addition
  in vitro translation of HPV16 L2 protein: progressive reduction in the in vitro translation of HPV16 L2 protein
[6]
  [^35S]cysteine-hnRNP-E1: 1.12 ± 0.23 b fmol/mg protein/h
[6]; listed as wild-type hnRNP-E1
  [^35S]cysteine-hnRNP-E1: 1.12 fmol/mg protein/h

## N[C@@H](CCS)C(=O)O [L-Homocysteine, L-homocysteine]
[7]
  hnRNP-E1 activation and mRNA-binding: optimal
[8]; 10-mM glutathione in reaction mixture, from 5-μM
  RNA-protein complex formation: dose-dependent increase in RNA-protein complex formation
[8]; in vitro assays using purified components
  concentration at which RNA-protein interaction can occur: ≥ 2.5 µM
[8]; increasing physiologically relevant concentrations
  RNA-protein signal: dose-dependent increase of RNA-protein signal
[9]
  CAT activity: further significant increase in CAT activity over baseline
hnRNP-E1 mRNA; N-ethylmaleimide maintained in the reaction mixture, physiological concentrations
  translation of hnRNP-E1: progressively increased translation of hnRNP-E1
[10]
  slot-blot hybridization signal of captured RNA-protein complexes: progressive dose-dependent increase in signal

## O.O.O.O.O.O.O.O=S(=O)([O-])[O-].[Fe+2] [iron(II), ferrous sulfate heptahydrate]
[11]
  RNA-protein binding affinity (KD): dose-dependent reduction in RNA-protein binding affinity
hnRNP-E1 mRNA; agent added to translation mixture (4.1-mM ß-ME)
  effect on in vitro translation of hnRNP-E1: dose-dependent impact in quenching the in vitro translation of hnRNP-E1
[12]; 10-mM glutathione
  effect on RNA-complex formation: comparable dose-dependent reduction in RNA-complex formation
[12]; no glutathione
  effect on formation of RNA-protein complexes: dose-dependent inhibitory effect

Reference: US10093706B2, “Dominant positive hnRNP-E1 polypeptide compositions and methods” (Indiana University Research and Technology Corporation, priority 2017, dated 2018)
